In ChEMBL document CHEMBL1201862, “PubChem BioAssay data set” (2004):
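96-well plates; 48 h exposure; 5 concentrations. Endpoints by linear interpolation between flanking doses. Not reached: highest tested concentration assigned. GI50 is the concentration that inhibits growth by half.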 Activity calls are given as the source filed them. Cut-off read from the data, not from the text of the source: active = GI50 up to about 1.1 µM and inactive = higher.

What was measured:
Assay in all cases: growth of human tumour cells (NCI), 48 h
HOP-62 = tested on: HOP-62
SNB-75 = tested on: SNB-75
OVCAR-4 = tested on: OVCAR-4
NCI-H522 = tested on: NCI-H522
SF-295 = tested on: SF-295
SK-MEL-28 = tested on: SK-MEL-28
TK-10 = tested on: TK-10
EKVX = tested on: EKVX
SK-OV-3 = tested on: SK-OV-3
K562 = tested on: K562
ACHN = tested on: ACHN
IGROV-1 = tested on: IGROV-1
M14 = tested on: M14
UACC-62 = tested on: UACC-62
SF-539 = tested on: SF-539
SK-MEL-5 = tested on: SK-MEL-5
A498 = tested on: A498

Row | SMILES | GI50 (HOP-62) | GI50 (SNB-75) | GI50 (OVCAR-4) | GI50 (NCI-H522) | GI50 (SF-295) | GI50 (SK-MEL-28) | GI50 (TK-10) | GI50 (EKVX) | GI50 (SK-OV-3) | GI50 (K562) | GI50 (ACHN) | GI50 (IGROV-1) | GI50 (M14) | GI50 (UACC-62) | GI50 (SF-539) | GI50 (SK-MEL-5) | GI50 (A498)
1 | CCOC(=O)C1C(c2ccc([N+](=O)[O-])cc2)NC(c2ccc([N+](=O)[O-])cc2)C(C(=O)OC)S1(=O)=O (stereo not drawn) | > 100 µM (inactive) | > 100 µM (inactive) | > 100 µM (inactive) | > 100 µM (inactive) | > 100 µM (inactive) | > 100 µM (inactive) | > 100 µM (inactive) | > 100 µM (inactive) | > 100 µM (inactive) | > 100 µM (inactive) | > 100 µM (inactive) | > 100 µM (inactive) | > 100 µM (inactive) | > 100 µM (inactive) |  |  | 
2 | N#Cc1c2ccccc2cn1-c1ccc(F)cc1 | 23 µM (inactive) | 2.61 µM (inactive) | 8.73 µM (inactive) | 14.4 µM (inactive) | 23.5 µM (inactive) | 47.8 µM (inactive) | 29 µM (inactive) |  |  | 26.7 µM (inactive) | 27.2 µM (inactive) | 67.6 µM (inactive) | 35.2 µM (inactive) | 30 µM (inactive) | 24.8 µM (inactive) | > 10 µM (inactive) | 
3 | Cc1cc2c(c3nocc13)C(=O)c1ccccc1C2=O | > 100 µM (inactive) | 28.6 µM (inactive) | > 100 µM (inactive) | > 100 µM (inactive) | > 100 µM (inactive) | > 100 µM (inactive) | > 100 µM (inactive) | > 100 µM (inactive) | > 100 µM (inactive) | > 100 µM (inactive) | > 100 µM (inactive) | > 100 µM (inactive) | > 100 µM (inactive) | > 100 µM (inactive) | > 100 µM (inactive) | > 100 µM (inactive) | 
4 | Cc1cc2c([nH]c3ccccc32)c2c1OC(C)(C)C1C3CC(C)(C)Oc4c(C)cc5c6ccccc6n(c5c43)C21 (stereo not drawn) | > 100 µM (inactive) | > 100 µM (inactive) | > 100 µM (inactive) | > 100 µM (inactive) | > 100 µM (inactive) | > 100 µM (inactive) | > 100 µM (inactive) | > 100 µM (inactive) | > 100 µM (inactive) | > 100 µM (inactive) | > 100 µM (inactive) | > 100 µM (inactive) | > 100 µM (inactive) | > 100 µM (inactive) | > 100 µM (inactive) | > 100 µM (inactive) | > 100 µM (inactive)
5 | COC1OC2COC(C)(C)OC2C(OC(C)=O)C1NC(=O)N(CCCl)N=O (stereo not drawn) | 48.1 µM (inactive) | 29.1 µM (inactive) | > 100 µM (inactive) | 11.7 µM (inactive) | 28.8 µM (inactive) | > 100 µM (inactive) | > 100 µM (inactive) | > 100 µM (inactive) | > 100 µM (inactive) | 54.8 µM (inactive) | > 100 µM (inactive) | > 100 µM (inactive) | > 100 µM (inactive) | 19.3 µM (inactive) | 21.4 µM (inactive) | > 100 µM (inactive) | > 100 µM (inactive)
6 | COC(=O)c1cc2c(c(C(=O)OC)c1O)C(=O)C=CC2=O | 30 µM (inactive) | 9.95 µM (inactive) | > 38.8 µM (inactive) |  | 27 µM (inactive) | > 39.9 µM (inactive) | > 39.4 µM (inactive) | > 21.2 µM (inactive) | > 89.5 µM (inactive) |  | > 31.3 µM (inactive) | 24.1 µM (inactive) | > 44.9 µM (inactive) | > 9.1 µM (inactive) | > 41.6 µM (inactive) | 37.2 µM (inactive) | > 41.1 µM (inactive)
7 | COc1cc(/C=C/c2ccc(OC)c(OC)c2OC)cc(OC)c1OC | 15.6 µM (inactive) | 10.8 µM (inactive) | 25.4 µM (inactive) | 15.3 µM (inactive) | 20.8 µM (inactive) | 15.3 µM (inactive) | 28.2 µM (inactive) | 21.5 µM (inactive) | 24.7 µM (inactive) | 23.1 µM (inactive) | 25.1 µM (inactive) | 28.2 µM (inactive) | 25.4 µM (inactive) | 13.4 µM (inactive) | 18.5 µM (inactive) | 14.7 µM (inactive) | 22 µM (inactive)
8 | [N-]=[N+]=NC1C(Br)C(=O)NC(=O)N1[C@H]1C[C@H](O)[C@@H](CO)O1 (stereo partly drawn) | > 100 µM (inactive) | > 100 µM (inactive) | > 100 µM (inactive) | > 100 µM (inactive) | > 100 µM (inactive) | > 100 µM (inactive) | > 100 µM (inactive) | > 100 µM (inactive) | > 100 µM (inactive) | > 100 µM (inactive) | > 100 µM (inactive) | > 100 µM (inactive) | > 100 µM (inactive) | > 100 µM (inactive) | > 100 µM (inactive) |  | > 100 µM (inactive)
9 | O=c1c2ccccc2nc(-c2ccccc2)n1NC(=S)Nc1ccc(Cl)cc1 | > 100 µM (inactive) | 59.4 µM (inactive) | 74.3 µM (inactive) | 34.7 µM (inactive) | > 100 µM (inactive) | 24.1 µM (inactive) | > 100 µM (inactive) |  | > 100 µM (inactive) | 48.4 µM (inactive) | 77.1 µM (inactive) | > 100 µM (inactive) | > 100 µM (inactive) | 55.2 µM (inactive) | > 100 µM (inactive) | 36.9 µM (inactive) | > 100 µM (inactive)
10 | CSc1nc(SC)c2c(C(N)=S)n[nH]c2n1 | 23.2 µM (inactive) | 25.9 µM (inactive) | 21.2 µM (inactive) | > 10 µM (inactive) | 6 µM (inactive) | 31.7 µM (inactive) | 23.3 µM (inactive) | 22.2 µM (inactive) | 23.6 µM (inactive) | 26.2 µM (inactive) | 24 µM (inactive) | 30.4 µM (inactive) | 31.9 µM (inactive) | 21.8 µM (inactive) | 23.1 µM (inactive) | 17.9 µM (inactive) | 24.5 µM (inactive)
11 | N#CC12CCC1C1CCCCC12N1CCSCC1 (stereo not drawn) | > 100 µM (inactive) | > 100 µM (inactive) | > 10 µM (inactive) |  | > 100 µM (inactive) | > 100 µM (inactive) |  |  |  | 76.6 µM (inactive) | > 100 µM (inactive) | > 100 µM (inactive) |  | > 100 µM (inactive) | > 100 µM (inactive) |  | > 100 µM (inactive)
12 | CC(C)C/C(CC(=O)CCC(=O)Nc1ccccc1[N+](=O)[O-])=N\NC(=O)c1cc2ccccc2cc1O | 57.3 µM (inactive) | 37.7 µM (inactive) |  | 28.4 µM (inactive) | 43.5 µM (inactive) | > 100 µM (inactive) | 51.2 µM (inactive) | 34 µM (inactive) | 79.6 µM (inactive) | 25.9 µM (inactive) | 34.1 µM (inactive) | 26 µM (inactive) | 26.6 µM (inactive) | 25.7 µM (inactive) | 27.1 µM (inactive) | 28.1 µM (inactive) | 0.0357 µM (active)
13 | COc1cc2c(c3c1c(=O)c1ccccc1n3C)C=CC(C)(C)O2 [ACRONINE] | 46.9 µM (inactive) | 82.6 µM (inactive) | > 100 µM (inactive) | 18.5 µM (inactive) | 32.3 µM (inactive) | 48.6 µM (inactive) | > 100 µM (inactive) |  | > 100 µM (inactive) | 52.1 µM (inactive) | 45.4 µM (inactive) | 58.5 µM (inactive) | > 100 µM (inactive) | 96.2 µM (inactive) | 37.8 µM (inactive) | > 100 µM (inactive) | 
14 | O=C(COC(=O)c1cccc2c(=O)c3ccccc3[nH]c12)Nc1ccccc1 | > 100 µM (inactive) | 31.8 µM (inactive) | 45.6 µM (inactive) | 25.3 µM (inactive) | 50.8 µM (inactive) | 43.5 µM (inactive) | > 100 µM (inactive) | > 100 µM (inactive) | > 100 µM (inactive) | 33.2 µM (inactive) | 41.8 µM (inactive) | > 100 µM (inactive) | 38 µM (inactive) | 26.4 µM (inactive) | 51.8 µM (inactive) | 19.8 µM (inactive) | 67.8 µM (inactive)
15 | CC(=O)NC1C(OCc2ccccc2)OC(COC(=O)CCCCCCCCCCNC(=O)c2cccc3c(=O)c4ccccc4[nH]c23)C(O)C1OC(C)C(=O)NC(C)C(=O)NC(CCC(N)=O)C(N)=O (stereo not drawn) | > 100 µM (inactive) | 56.9 µM (inactive) | 61 µM (inactive) | 89.1 µM (inactive) | 71.1 µM (inactive) | 47.3 µM (inactive) | > 100 µM (inactive) | > 100 µM (inactive) | > 100 µM (inactive) | 35.6 µM (inactive) | 55.8 µM (inactive) | 50.1 µM (inactive) | > 100 µM (inactive) | 35.2 µM (inactive) | 92.9 µM (inactive) | 37.4 µM (inactive) | 98.6 µM (inactive)
16 | N#C/C(=C/c1cccnc1)C(=O)c1ccccc1 | > 100 µM (inactive) | > 100 µM (inactive) | > 100 µM (inactive) | > 100 µM (inactive) | > 100 µM (inactive) | > 100 µM (inactive) | > 100 µM (inactive) | > 100 µM (inactive) | > 100 µM (inactive) | > 100 µM (inactive) | > 100 µM (inactive) |  | > 100 µM (inactive) | > 100 µM (inactive) | > 100 µM (inactive) | > 100 µM (inactive) | 
17 | S=c1cc(S)c2c(=S)sc3nc4ccccn4c(=S)c3c2s1 |  | > 100 µM (inactive) | > 100 µM (inactive) |  | > 100 µM (inactive) | > 100 µM (inactive) | > 100 µM (inactive) | 81.8 µM (inactive) |  | 18.5 µM (inactive) | > 100 µM (inactive) |  | 35.8 µM (inactive) | 36.4 µM (inactive) | 41 µM (inactive) | 38.5 µM (inactive) | > 100 µM (inactive)
